Assay results taken from the supplement of paper PMC12592484.

Experiments:
Assay in all cases: drug sensitivity score (DSS2, normalised partial AUC of dose-response, 72 h CellTiter-Glo viability) (DSS (dimensionless)); higher = more sensitive (stronger growth inhibition / cytotoxicity); extreme values may be limits of the assay
[1] = system: 22Rv1
In short: (§1)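 In BREEZE, the drug sensitivity score was derived as a partial area under a fitted logistic dose–response curve over the log of that curve's upper asymptote; a higher score marks a more sensitive response. The input came from low-passage primary prostate cancer-associated fibroblasts, PF179T, WPMY-1, LNCaP and 22Rv1 cells, each seeded into 384-well plates with compounds pre-dispensed at five doses spanning a 10,000-fold range. CellTiter-Glo 2.0 luminescence after 72 h gave viability, which was normalized to vehicle and positive-control wells.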

[2] = system: CAF#1 (primary prostate cancer-associated fibroblasts of myCAF-like type)
In short: as §1

[3] = system: CAF#2 (primary prostate cancer-associated fibroblasts of iCAF-like type)
In short: as §1

[4] = system: CAF#3 (primary prostate cancer-associated fibroblasts of myCAF-like type)
In short: as §1

[5] = system: CAF#4 (primary prostate cancer-associated fibroblasts of iCAF-like type)
In short: as §1

[6] = system: CAF#5 (primary prostate cancer-associated fibroblasts of myCAF-like type)
In short: as §1

[7] = system: CAF#6 (primary prostate cancer-associated fibroblasts of iCAF-like type)
In short: as §1

[8] = system: CAF#7 (primary prostate cancer-associated fibroblasts of myCAF-like type)
In short: as §1

[9] = system: LNCAP
In short: as §1

[10] = system: PF179T
In short: as §1

[11] = system: WPMY-1
In short: as §1

SMILES | drug sensitivity score [1] | drug sensitivity score [2] | drug sensitivity score [3] | drug sensitivity score [4] | drug sensitivity score [5] | drug sensitivity score [6] | drug sensitivity score [7] | drug sensitivity score [8] | drug sensitivity score [9] | drug sensitivity score [10] | drug sensitivity score [11]
C=CC(=O)N1CC/C(=C\c2ccc(F)c([N+](=O)[O-])c2)C(=O)/C(=C/c2ccc(F)c([N+](=O)[O-])c2)C1 [VLX1570] (tested concentration range 1-10000 nM) | 26.9 | 26.9 | 29.7 | 17.3 | 28 | 25.1 | 17.5 | 19.5 | 21.4 | 22.2 | 29.3
CC(C)C[C@H](NC(=O)[C@@H](COC(C)(C)C)NC(=O)[C@H](Cc1ccc(O)cc1)NC(=O)[C@H](CO)NC(=O)[C@H](Cc1c[nH]c2ccccc12)NC(=O)[C@H](Cc1cnc[nH]1)NC(=O)[C@@H]1CCC(=O)N1)C(=O)N[C@@H](CCCNC(=N)N)C(=O)N1CCC[C@H]1C(=O)NNC(N)=O [Goserelin] (tested concentration range 1-10000 nM) | 0 | 0 | 0 | 0 | 0 | 0.2 | 0.6 | 0 | 0 | 0 | 0
N#CC[C@H](C1CCCC1)n1cc(-c2ncnc3[nH]ccc23)cn1 [Ruxolitinib] (tested concentration range 1-10000 nM) | 0 | 0 | 0.8 | 0 | 0 | 1.3 | 0 | 0 | 1.5 | 0 | 0.6
CCCCCCCCc1ccc(CCC(N)(CO)CO)cc1 [Fingolimod] (tested concentration range 1-10000 nM) | 7 | 5.4 | 5.3 | 5.2 | 6 | 6.8 | 5.9 | 6.3 | 7.9 | 5.1 | 6.7
CC(=O)c1cc2c(o1)C(=O)c1ccccc1C2=O [Napabucasin] (tested concentration range 2-20000 nM) | 17.7 | 11.2 | 22.6 | 16.4 | 22.4 | 11.7 | 16.8 | 9.5 | 19.5 | 21 | 19.8
COc1cccc2c1C(=O)c1c(O)c3c(c(O)c1C2=O)C[C@@](O)(C(=O)CO)C[C@@H]3O[C@H]1C[C@H](N)[C@@H](O)[C@H](C)O1 [Epirubicin] (tested concentration range 0.1-1000 nM) | 10.1 | 4.8 | 6.2 | 3.7 | 2.8 | 4.4 | 7 | 7.9 | 15.7 | 6.7 | 9.5
CC[C@@H]1C(=O)N(C)c2cnc(Nc3ccc(C(=O)N[C@H]4CC[C@H](N5CCN(CC6CC6)CC5)CC4)cc3OC)nc2N1C(C)C [Volasertib] (tested concentration range 0.1-1000 nM) | 14.9 | 0.4 | 5.1 | 4.2 | 0 | 1.7 | 1.9 | 2.9 | 19.3 | 5.9 | 11.4
NC1(c2ccc(-c3nc4ccn5c(=O)[nH]nc5c4cc3-c3ccccc3)cc2)CCC1 [MK-2206] (tested concentration range 0.1-1000 nM) | 5.8 | 2.7 | 2.6 | 4 | 2 | 3 | 3.2 | 1.8 | 11.1 | 1.8 | 2.4
C[C@@H]1CN(CC(=O)Nc2ccc3c(c2)Cc2cccc(-c4cc(=O)cc(N5CCOCC5)o4)c2S3)C[C@H](C)O1 (tested concentration range 2.5-25000 nM) | 2.5 | 0 | 0.4 | 0.2 | 0 | 0 | 0.2 | 0 | 6.7 | 0.4 | 4.2
CC(=O)[C@]1(O)Cc2c(O)c3c(c(O)c2[C@@H](O[C@H]2C[C@H](N)[C@H](O)[C@H](C)O2)C1)C(=O)c1ccccc1C3=O [Idarubicin] (tested concentration range 0.1-1000 nM) | 12.9 | 7.6 | 12.1 | 4.4 | 7.5 | 7.9 | 8.5 | 9.3 | 19.9 | 12.5 | 16.4
CCn1c(-c2nonc2N)nc2c(C#CC(C)(C)O)ncc(OC[C@H]3CCCNC3)c21 (tested concentration range 1-10000 nM) | 5.4 | 3.8 | 3.3 | 0 | 1.2 | 1.6 | 0 | 0 | 25.7 | 1.9 | 0
CC(=O)Nc1cccc(-n2c(=O)n(C3CC3)c(=O)c3c(Nc4ccc(I)cc4F)n(C)c(=O)c(C)c32)c1 [Trametinib] (tested concentration range 0-250 nM) | 11.8 | 3 | 5.5 | 0 | 1.3 | 2.7 | 1.7 | 4.2 | 0 | 1.8 | 5.5
CCS(=O)(=O)N1CC(CC#N)(n2cc(-c3ncnc4[nH]ccc34)cn2)C1 [Baricitinib] (tested concentration range 0.2-2500 nM) | 0 | 0 | 0 | 0 | 0 | 0 | 0 | 0 | 0 | 0 | 0
CCOC(=O)C1=CCCC[C@H]1S(=O)(=O)Nc1ccc(F)cc1Cl [Resatorvid] (tested concentration range 1-10000 nM) | 0 | 0 | 0 | 5.7 | 0 | 0 | 3.6 | 0.3 | 0.4 | 0 | 0
CNC(=O)[C@@H](NC(=O)[C@H](CC(C)C)[C@H](O)C(=O)NO)C(C)(C)C [Marimastat] (tested concentration range 1-10000 nM) | 0 | 0 | 0 | 0.6 | 0 | 0 | 0 | 0 | 0 | 0 | 0.4
CN[C@@H](C)C(=O)N[C@H]1CN(C(=O)CC(C)C)CC[C@H]2CC[C@@H](C(=O)NC(c3ccccc3)c3ccccc3)N2C1=O [AT-406] (tested concentration range 1-10000 nM) | 0 | 0 | 0 | 0 | 0 | 0 | 1.6 | 0 | 0 | 0 | 0
CS(=O)(=O)CCNCc1ccc(-c2ccc3ncnc(Nc4ccc(OCc5cccc(F)c5)c(Cl)c4)c3c2)o1 [Lapatinib] (tested concentration range 0.1-1000 nM) | 0 | 0 | 0 | 0.1 | 0 | 0 | 0 | 0 | 0.3 | 0 | 0
O=C(CCCCCCC(=O)Nc1ccccc1)NO [Vorinostat] (tested concentration range 1-10000 nM) | 9.7 | 4 | 6.5 | 6.3 | 4.9 | 4.1 | 4.2 | 3.1 | 10 | 3.4 | 9.7
COc1cc(N2CCN(C)CC2)ccc1Nc1nccc(-c2cn(C)c3cnccc23)n1 [AZ191] (tested concentration range 1-10000 nM) | 6.4 | 6 | 5.7 | 7.1 | 1.9 | 4.6 | 2.3 | 2.1 | 3.5 | 2.7 | 6.8
C[C@@H](Oc1cc(-c2cnn(C3CCNCC3)c2)cnc1N)c1c(Cl)ccc(F)c1Cl [Crizotinib] (tested concentration range 0.1-1000 nM) | 0 | 0 | 1.4 | 2.7 | 0 | 1.5 | 2.5 | 0.8 | 0 | 1.4 | 0.5
Nc1ncnc2c1c(COc1cccc(Cl)c1)nn2C1CCOCC1 (tested concentration range 1-10000 nM) | 0 | 2.5 | 2.1 | 2.8 | 0 | 1.8 | 0.6 | 1 | 2.3 | 0 | 0
Cc1nc(C(=O)NCC(=O)O)c(O)c2ccc(Oc3ccccc3)cc12 [Roxadustat] (tested concentration range 1-10000 nM) | 0 | 0 | 0 | 0 | 0 | 0.2 | 0 | 0 | 0 | 0 | 0
CCOC(=O)CCNc1cc(N2CCc3ccccc3CC2)nc(-c2ccccn2)n1 [GSK-J4] (tested concentration range 10-100000 nM) | 2.1 | 2.1 | 4.3 | 0.6 | 3.7 | 0.3 | 0 | 0 | 3.5 | 0.3 | 0.5
CC(C)Oc1ccc(-c2nn([C@@H](C)c3oc4ccc(F)cc4c(=O)c3-c3cccc(F)c3)c3ncnc(N)c23)cc1F [Umbralisib] (tested concentration range 0.2-2500 nM) | 0 | 1.1 | 0.9 | 2.4 | 0 | 0 | 0 | 0 | 3.4 | 0 | 0
CN(C)C(=O)c1cc2cnc(Nc3ccc(N4CCNCC4)cn3)nc2n1C1CCCC1 [Ribociclib] (tested concentration range 1-10000 nM) | 5 | 0 | 4.6 | 2.9 | 2.7 | 2.5 | 2.4 | 3 | 7.7 | 3.7 | 0
